{"source": "patent US10189785B2", "about": "“Heterocyclic compound” (TAKEDA PHARMACEUTICAL COMPANY LIMITED, priority 2015, dated 2019)", "data": [{"target": "T1, SPT (SPT2-expressing membrane fraction: human SPT1, human SPT2 and human ssSPTa) (Homo sapiens, UniProt O15269+O15270)", "T1 construct": "Full-length human SPT1, human SPT2 and human ssSPTa used; made in house; host or cells: FreeStyle 293 cells (pcDNA3.1 vectors, cotransfection); crude membrane fraction used", "T1 sequence (O15269 1-473)": "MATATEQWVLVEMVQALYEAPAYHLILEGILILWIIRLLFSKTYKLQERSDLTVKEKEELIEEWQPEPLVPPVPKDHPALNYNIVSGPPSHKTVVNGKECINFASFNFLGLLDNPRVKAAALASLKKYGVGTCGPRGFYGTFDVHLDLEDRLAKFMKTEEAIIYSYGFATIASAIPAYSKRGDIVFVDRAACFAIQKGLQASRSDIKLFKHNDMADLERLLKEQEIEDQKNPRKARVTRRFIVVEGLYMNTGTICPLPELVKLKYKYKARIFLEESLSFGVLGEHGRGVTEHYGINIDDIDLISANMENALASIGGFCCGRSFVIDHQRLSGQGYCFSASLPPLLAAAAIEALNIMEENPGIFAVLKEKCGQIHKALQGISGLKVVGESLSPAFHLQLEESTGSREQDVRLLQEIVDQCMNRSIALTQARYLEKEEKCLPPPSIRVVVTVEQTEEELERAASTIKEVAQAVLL", "T1 sequence (O15270 1-562)": "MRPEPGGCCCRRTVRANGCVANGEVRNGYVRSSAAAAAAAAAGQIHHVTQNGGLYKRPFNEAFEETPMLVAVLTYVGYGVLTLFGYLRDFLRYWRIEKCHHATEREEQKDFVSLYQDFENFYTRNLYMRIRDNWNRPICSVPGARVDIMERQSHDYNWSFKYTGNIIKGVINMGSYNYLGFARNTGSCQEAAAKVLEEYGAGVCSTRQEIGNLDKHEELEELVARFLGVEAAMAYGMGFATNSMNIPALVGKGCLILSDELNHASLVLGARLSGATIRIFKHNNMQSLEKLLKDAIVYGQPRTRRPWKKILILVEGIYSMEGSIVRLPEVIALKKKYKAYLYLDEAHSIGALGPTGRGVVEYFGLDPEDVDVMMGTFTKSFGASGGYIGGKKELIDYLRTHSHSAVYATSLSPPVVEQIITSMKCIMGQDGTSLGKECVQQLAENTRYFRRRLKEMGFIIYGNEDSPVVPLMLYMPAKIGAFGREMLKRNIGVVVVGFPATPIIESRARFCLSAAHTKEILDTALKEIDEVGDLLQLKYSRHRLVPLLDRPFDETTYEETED", "T1 sequence (Q969W0 1-71 partner)": "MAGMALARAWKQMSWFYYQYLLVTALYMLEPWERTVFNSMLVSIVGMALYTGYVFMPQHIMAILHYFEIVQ", "assay": "SPT enzyme inhibition test (Test Example 1)", "type": "biochemical", "conditions": "read-out: Rate of inhibition (%) at 1 μM", "description": "After culture for 3 days, the cells were recovered and frozen at −80° C. to obtain expressing cells. The frozen cells were suspended in a 50 mM Hepes buffer (pH 7.5) containing 250 mM sucrose, 5 mM ethylenediaminetetraacetic acid (EDTA), 5 mM dithiothreitol (DTT) and Complete, EDTA-free (Roche Applied Science, Penzberg, Upper Bavaria, Germany). The cells were disrupted (on ice, 20,000 rpm, 20 sec×2) using POLYTORON (Central Scientific Commerce, Inc.). After centrifugation at 2000 rpm (850×g) for 10 minutes, the supernatant was recovered. Subsequently, the supernatant was centrifuged at 40,000 rpm (186,010×g) for 60 minutes, and the supernatant was discarded. The pellets were suspended in a 50 mM Hepes buffer (pH 7.5) containing 5 mM EDTA, 5 mM DTT and Complete, EDTA-free, passed through a 40-μm cell strainer and stored at −80° C. The resultant was used as a SPT2-expressing membrane fraction. The protein concentration was determined using CBB Protein Assay with bovine serum albumin used as standards.\n5 μL of each test compound was mixed with 10 μL of the 100 μg/mL SPT2-expressing membrane fraction using an assay buffer (100 mM Hepes (pH 8.0) containing 2.5 mM EDTA, 5 mM DTT and 0.01% fatty acid-free bovine serum albumin), and the mixture was left standing at room temperature for 60 minutes. Subsequently, 5 μL of a substrate solution containing 2 mM L-serine and 20 μM palmitoyl CoA was added thereto, and an enzyme reaction was carried out in a 384-well plate using 20 μL in total of the reaction system. After reaction at room temperature for 15 minutes, the reaction was terminated by the addition of 20 μL of a 2% aqueous formic acid solution. Subsequently, 40 μL of acetonitrile containing 600 nM C17-sphinganine (Avanti Polar Lipids, Inc., Alabaster, Ala., U.S.) was added thereto as an internal standard. The reaction sample was subjected to on-line solid-layer extraction using RapidFire 300 (Agilent Technologies Inc., Santa Clara, Calif., U.S.). […] Mass chromatograms were obtained using Analyst software (version 1.5.0, AB SCIEX). Their mass chromatogram areas were respectively calculated, and the rate of inhibition (%) by the test compound was calculated using an area ratio (the value of the reaction product was divided by the value of the internal standard).", "units": {"inhibition at 1 µM": "%"}, "values": [{"smiles": "COc1cc(C(=O)N2CC[C@@H](NC(=O)c3ccccc3OC(F)(F)F)[C@H](n3cccn3)C2)cnc1OC", "note": "(relative stereo) [Example 276B, N-(trans-1-((5,6-dimethoxypyridin-3-yl)carbonyl)-3-(1H-pyrazol-1-yl)piperidin-4-yl)-2-(trifluoromethoxy)benzamide]", "inhibition at 1 µM": 82}, {"smiles": "COc1ccc(C(=O)N2CC[C@@H](NC(=O)c3ccccc3Cl)[C@H](c3sccc3C)C2)cc1OC", "note": "(relative stereo) [Example 270B, 2-chloro-N-(trans-1-(3,4-dimethoxybenzoyl)-3-(3-methyl-2-thienyl)piperidin-4-yl)benzamide]", "inhibition at 1 µM": 89}, {"smiles": "COc1ccc(C(=O)N2CCC(NC(=O)c3ccccc3Cl)c3c(C)nn(C)c32)cc1OC", "note": "(stereo not shown) [Example 172A, 2-Chloro-N-(7-(3,4-dimethoxybenzoyl)-1,3-dimethyl-4,5,6,7-tetrahydro-1H-pyrazolo[3,4-b]pyridin-4-yl)benzamide]", "inhibition at 1 µM": 93}, {"smiles": "COc1ccc(C(=O)N2CCC(NC(=O)c3cnccc3C(F)(F)F)c3c2cnn3C)cc1OC", "note": "(stereo not shown) [Example 91A, N-(4-(3,4-dimethoxybenzoyl)-1-methyl-4,5,6,7-tetrahydro-1H-pyrazolo[4,3-b]pyridin-7-yl)-4-(trifluoromethyl)nicotinamide]", "inhibition at 1 µM": 94}, {"smiles": "COc1cc(C(=O)N2CC[C@@H](NC(=O)c3ncccc3C(F)(F)F)[C@@H](c3ccccc3)C2)n(C)n1", "note": "[Example 72B, N-((3S,4R)-1-((3-methoxy-1-methyl-1H-pyrazol-5-yl)carbonyl)-3-phenylpiperidin-4-yl)-3-(trifluoromethyl)pyridine-2-carboxamide]", "inhibition at 1 µM": 94}, {"smiles": "COc1ccc(C(=O)N2CCC(NC(=O)c3sccc3Cl)c3c2cnn3C)cc1OC", "note": "(stereo not shown) [Example 64A, 3-chloro-N-(4-(3,4-dimethoxybenzoyl)-1-methyl-4,5,6,7-tetrahydro-1H-pyrazolo[4,3-b]pyridin-7-yl)thiophene-2-carboxamide]", "inhibition at 1 µM": 82}, {"smiles": "COc1cc(C(=O)N2CC[C@@H](NC(=O)c3ccnn3C)[C@@H](c3ccccc3)C2)cnc1OC", "note": "[Example 144B, N-((3S,4R)-1-((5,6-dimethoxypyridin-3-yl)carbonyl)-3-phenylpiperidin-4-yl)-1-methyl-1H-pyrazole-5-carboxamide]", "inhibition at 1 µM": 98}, {"smiles": "COc1ccc(C(=O)N2CCC(NC(=O)c3ccccc3Cl)c3c(C)nsc32)cc1OC", "note": "(stereo not shown) [Example 117A, 2-Chloro-N-(7-(3,4-dimethoxybenzoyl)-3-methyl-4,5,6,7-tetrahydro[1,2]thiazolo[5,4-b]pyridin-4-yl)benzamide]", "inhibition at 1 µM": 84}, {"smiles": "COc1ccc(C(=O)N2CCC(NC(=O)c3ccccc3Cl)c3nn(C)cc32)cc1OC", "note": "(stereo not shown) [Example 1A, 2-Chloro-N-(4-(3,4-dimethoxybenzoyl)-2-methyl-4,5,6,7-tetrahydro-2H-pyrazolo[4,3-b]pyridin-7-yl)benzamide]", "inhibition at 1 µM": 91}, {"smiles": "COc1ccc(C(=O)N2CCC(NC(=O)c3ccccc3Cl)c3nscc32)cc1OC", "note": "(stereo not shown) [Example 30A, 2-Chloro-N-[4-(3,4-dimethoxybenzoyl)-4,5,6,7-tetrahydro[1,2]thiazolo[4,3-b]pyridin-7-yl]benzamide]", "inhibition at 1 µM": 93}, {"smiles": "COc1ccc(C(=O)N2CCC(NC(=O)c3ccccc3Cl)c3noc(C)c32)cc1OC", "note": "(stereo not shown) [Example 17A, 2-Chloro-N-[4-(3,4-dimethoxybenzoyl)-3-methyl-4,5,6,7-tetrahydro[1,2]oxazolo[4,3-b]pyridin-7-yl]benzamide]", "inhibition at 1 µM": 84}, {"smiles": "COc1ccc(C(=O)N2CCC(NC(=O)c3ccccc3Cl)c3ccc(Cl)nc32)cc1OC", "note": "(stereo not shown) [Example 217A, 2-Chloro-N-(7-chloro-1-(3,4-dimethoxybenzoyl)-1,2,3,4-tetrahydro-1,8-naphthyridin-4-yl)benzamide]", "inhibition at 1 µM": 102}, {"smiles": "COc1ccc(C(=O)N2CC[C@@H](NC(=O)c3ccccc3OC(F)(F)F)[C@@H](N3CCCCC3)C2)cc1OC", "note": "(relative stereo) [Example 55B, N-(cis-1′-(3,4-Dimethoxybenzoyl)-1,3′-bipiperidin-4′-yl)-2-(trifluoromethoxy)benzamide]", "inhibition at 1 µM": 95}, {"smiles": "COc1cc(C(=O)N2CC[C@@H](NC(=O)c3ccccc3OC(F)(F)F)[C@H](N3CCCCC3)C2)cnc1OC", "note": "(relative stereo) [Example 253B, N-(trans-1′-((5,6-Dimethoxypyridin-3-yl)carbonyl)-1,3′-bipiperidin-4′-yl)-2-(trifluoromethoxy)benzamide]", "inhibition at 1 µM": 97}, {"smiles": "COc1ccc(C(=O)N2CCC(NC(=O)c3cccnc3C(F)(F)F)c3c2cnn3C)cc1OC", "note": "(stereo not shown) [Example 103A, N-(4-(3,4-dimethoxybenzoyl)-1-methyl-4,5,6,7-tetrahydro-1H-pyrazolo[4,3-b]pyridin-7-yl)-2-(trifluoromethyl)nicotinamide]", "inhibition at 1 µM": 95}]}, {"tested_on": "lung adenocarcinoma cell line HCC4006", "assay": "HCC4006 cell growth inhibition test (Test Example 2)", "type": "cell-based", "conditions": "Homo sapiens, 120 h; 1 μM test compound; HCC4006 cells, culture for 5 days, CellTiter-Glo; read-out: Rate of inhibition (%) at 1 μM", "description": "A lung adenocarcinoma cell line HCC4006 (ATCC) was cultured using an RPMI-1640 medium (Wako Pure Chemical Industries, Ltd.) containing 10% fetal bovine serum and penicillin/streptomycin. 250 cells per well were inoculated into 40 μL of a medium in a 384-well culture plate. On the next day, 10 μL of each test compound was added to the cells. After culture for 5 days, the medium was discarded, and 30 μL of CellTiter-Glo Luminescent Cell Viability Assay solution (Promega Corp., Fitchburg, Wis., U.S.) was added to each well. Light emission signals were measured using EnVision (PerkinElmer, Inc., Waltham, Mass., U.S.).\nThe rate of inhibition (%) by the test compound was calculated according to the following expression: Rate of inhibition (%)=(1−(Count of the test compound−Blank)/(Control−Blank))×100\nIn the above expression, a count under compound non-addition conditions was indicated as a control, and a count under cell-free conditions was indicated as a blank.", "units": {"inhibition at 1 µM": "%"}, "values": [{"smiles": "COc1ccc(C(=O)N2CCC(NC(=O)c3ccccc3Cl)c3ccc(Cl)cc32)cc1OC", "note": "(stereo not shown) [Example 201A, 2-Chloro-N-(7-chloro-1-(3,4-dimethoxybenzoyl)-1,2,3,4-tetrahydroquinolin-4-yl)benzamide]", "inhibition at 1 µM": 40}, {"smiles": "COc1ccc(C(=O)N2CCC(NC(=O)c3ccccc3Cl)c3c2cnn3C(C)C)cc1OC", "note": "(stereo not shown) [Example 36A, 2-Chloro-N-(4-(3,4-dimethoxybenzoyl)-1-isopropyl-4,5,6,7-tetrahydro-1H-pyrazolo[4,3-b]pyridin-7-yl)benzamide]", "inhibition at 1 µM": 47}, {"smiles": "COc1ccc(C(=O)N2CC[C@H](NC(=O)c3ccccc3Cl)c3c2cnn3C(C)C)cc1OC", "note": "[Example 74A, 2-Chloro-N-((7S)-4-(3,4-dimethoxybenzoyl)-1-isopropyl-4,5,6,7-tetrahydro-1H-pyrazolo[4,3-b]pyridin-7-yl)benzamide]", "inhibition at 1 µM": 51}, {"smiles": "COc1ccc(C(=O)N2CC[C@@H](NC(=O)c3ccccc3Cl)[C@H](c3ccccc3)C2)cc1OC", "note": "[Example 3B, 2-chloro-N-((3R,4R)-1-(3,4-dimethoxybenzoyl)-3-phenylpiperidin-4-yl)benzamide]", "inhibition at 1 µM": 44}]}]}
